Where two headings read alike, the source gives them in different places.
How the values were obtained:
human S1P1 [1] = target: T1, human S1P1 (Homo sapiens, UniProt P21453); assay: GTP[γ-35S] binding assay using membrane of human S1P1 expressing cell (Test Example 1, Method 1); format: biochemical; conditions: method 1, GTP[γ-35S] binding, membrane of human S1P1 expressing CHO cell (values without *); read-out: A: EC50, in vitro S1P1 agonist action
T1 construct: expressed in transfected cells; membrane fraction used
Description: (§1) Evaluation of In Vitro S1P1 Receptor Agonist Activity in Biological Body
(Method 1) Method for Evaluation on Receptor Agonist Action by GTP[γ-^35S] Binding Assay Using Membrane of Human S1P1 Expressing Cell
The in vitro S1P1 agonist action of the compound of the present invention was evaluated by the increase in the functional binding activity of GTP[γ-^35S] to G-protein using the membrane of a human S1P1 expressing cell. A cDNA encoding a human S1P1 was cloned from a human colorectal cDNA library and introduced to an expression vector pcDNA3.1 to construct a S1P1-pcDNA3.1. Then, by Lipofectamine 2000 (GIBCO), the S1P1-pcDNA3.1 was transfected into a CHO cell, and cultured in a Ham's F-12 culture medium containing 10% fetal bovine serum, 100 U/mL penicillin, 100 μg/mL streptomycin, and 1 mg/mL G418 disulfate, to obtain a stable, G418-resistant strain. The cultured human S1P1 expressing cells were isolated in a 1 mM EDTA.2Na-containing PBS, and disrupted under ice-cooling by a homogenizer made of glass in a 1 mM Tris HCl (pH 7.4) buffer solution containing 0.1 mM EDTA and a protein inhibitor. It was centrifuged at […], and a supernatant was further centrifuged at 4° C. for 60 min at 100,000×g, and suspended in a 10 mM Tris HCl (pH 7.4) buffer solution containing 1 mM EDTA to purify the membrane. The obtained membrane (0.13 mg/mL) and […] GTP[γ-^35S] […] The filter plate was dried at 50° C. for 60 min, and Microscinti-o (Packard) was added thereto for measurement by a liquids scintillation counter for a microplate (Packard, TOP count). For evaluation of the human S1P1 agonist action of the compound of the present invention and the comparative compound, the percentages with the rate of a maximum reaction to make the GTP[γ-^35S] bonds saturated in the presence of the compound being set at 100%, and the rate of the reaction of the GTP[γ-^35S] bonds in the absence of the compound being set at 0% were used, a non-linear regression curve was plotted, and a concentration to cause an agonist action operating 50% of the maximum reaction was defined as an EC50 value (nM).

[2] = tested on: peripheral blood lymphocytes; assay: Reduction of number of peripheral blood lymphocytes in rat (Test Example 2); format: in vivo; conditions: Lymphocyte, male Lewis rats, oral
Description: Evaluation of Reduction of Number of Peripheral Blood Lymphocytes in Rat
The action on the peripheral blood lymphocytes were evaluated using rats. 6- to 10-week-old male Lewis rats (Japan Charles River Laboratories Japan, Inc.) were randomly divided into groups (n=3), and the compound of the present invention was suspended in 0.5% methyl cellulose-containing distilled water, and orally administered with a sonde. At 4 hours or 24 hours after administration, 0.2 ml of blood was collected from the ocular fundus under ether anesthesia. To the blood sample were immediately added EDTA.4K and heparin to prevent clotting, and the number of the lymphocytes in blood was measured with an automatic hematocyte analyzer (Sysmex Corp.; XT-2000i). For the reduction of the number of the lymphocytes in peripheral blood by the compound of the present invention, the percentage with the number of the lymphocytes in groups administered with 0.5% methyl cellulose-containing distilled water being set at 100%, as performed at the same time, were used, and the dose to cause 50% reduction of the number of the lymphocytes in the peripheral blood by administration of the compound of the present invention was defined as an ED50 value (mg/kg).

human S1P1 [3] = target: T1, human S1P1; assay: Ca2+ influx assay using human S1P1 expressing cell (Test Example 1, Method 2); format: cell-based; conditions: method 2, Ca2+ influx, human S1P1 expressing CHO cell (values with *); read-out: A: EC50, in vitro S1P1 agonist action (value with *)
Description: as §1
(Method 2) Method for Evaluation of Receptor Agonist Action by Ca^2+ Influx Assay Using Human S1P1 Expressing Cell
The in vitro S1P1 agonist action of the compound of the present invention was evaluated by the increase in the Ca^2+ concentration in a human S1P1 expressing cell. A cDNA encoding a human S1P1 was cloned from a human colorectal cDNA library and introduced to an expression vector pcDNA3.1 to construct a S1P1-pcDNA3.1. Then, by Lipofectamine 2000 (GIBCO), the S1P1-pcDNA3.1 was transfected into a CHO cell, and cultured in a Ham's F-12 culture medium containing 10% fetal bovine serum, 100 U/mL penicillin, 100 μg/mL streptomycin, and 1 mg/mL G418 disulfate, to obtain a stable, G418-resistant strain. The cultured human S1P1 expressing cells were isolated in a 1 mM EDTA.2Na-containing PBS and suspended in a Ham's F-12 culture medium containing 10% fetal bovine serum, 100 U/mL penicillin, and 100 μg/mL streptomycin. This cell suspension was dispensed to a 96-well plate at 50000 cells/well, and cultured at a CO2 incubator (5% CO2, 37° C.) overnight. The culture medium was replaced with a calcium-sensitive fluorescent reagent (FLIPR (registered trademark) calcium 3 assay kit, molecular device)-containing loading buffer (Hank's balance salt solution, 20 mM HEPES, 2.5 mM probenecid) and left stand at a CO2 incubator (5% CO2, 37° C.) for 1 hour. The plate was set at a Functional Drug Screening System FDSS6000 (Hamamatsu Photonics K. K.), and persistently measured 124 times every 1.02 second at an excitation wavelength of 480 nm. The test compound (final concentration 10^−12 to 10^−5 M) was added at the same time as the 12th measurement, and the change in the Ca^2+ concentration in cells was evaluated by the change in the fluorescent strength. For evaluation of the human S1P1 agonist action of the compound of the present invention and the comparative compound, the percentages with the rate of a maximum reaction to make the increase in the Ca^2+ concentration in cells saturated after the addition of the compound being set at 100% and the rate of the increase in the Ca^2+ concentration in cells by the addition of a vehicle alone being set at 0% were used, a non-linear regression curve was plotted, and a concentration to cause an agonist action operating 50% of the maximum reaction was defined as an EC50 value (nM).

[4] = 4 hours after administration, read-out: B: ED50 4 h, reduction of number of lymphocytes in peripheral blood
[5] = 24 hours after administration, read-out: B: ED50 24 h, reduction of number of lymphocytes in peripheral blood

T1 sequence (P21453 whole entry): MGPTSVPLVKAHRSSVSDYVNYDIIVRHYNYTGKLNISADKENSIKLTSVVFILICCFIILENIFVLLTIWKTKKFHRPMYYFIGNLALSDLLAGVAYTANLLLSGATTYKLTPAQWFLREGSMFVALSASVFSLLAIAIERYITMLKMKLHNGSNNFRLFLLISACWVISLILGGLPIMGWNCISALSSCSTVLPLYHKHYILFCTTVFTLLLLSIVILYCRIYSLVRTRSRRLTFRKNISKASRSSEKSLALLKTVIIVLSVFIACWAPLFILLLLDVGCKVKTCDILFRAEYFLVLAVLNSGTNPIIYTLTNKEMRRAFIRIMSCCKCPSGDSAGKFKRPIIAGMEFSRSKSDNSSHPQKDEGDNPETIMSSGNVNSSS

| Compound | EC50 (human S1P1 [1]) [nM] | ED50 [2, 4] [mg/kg] | ED50 [2, 5] [mg/kg] | EC50 (human S1P1 [3]) [nM] |
| --- | --- | --- | --- | --- |
| CS(=O)(=O)NC(=O)C1CCN(CC2=Cc3c(F)cc(OCc4ccc(C(F)(F)F)cc4C(F)(F)F)cc3OC2)C1.Cl (stereo not shown) [Ex 1, 1-[(7-{[2,4-bis(trifluoromethyl)benzyl]oxy}-5-fluoro-2H-chromen-3-yl)methyl]-N-(methylsulfonyl)pyrrolidine-3-carboxamide hydrochloride] | 1.7 | 0.016 |  |  |
| O=C(O)C1CN(CC2=C(Cl)c3ccc(OCc4ccc(C(F)(F)F)cc4C(F)(F)F)cc3OC2)C1 [Ex 25] | 1.7 | 0.013 |  |  |
| CCCc1ccc(COc2ccc3c(c2)OCC(CN2CCC(C(=O)O)C2)=C3)c(OC)c1 (stereo not shown) [Ex 31] | 1.2 | 0.065 |  |  |
| O=C(O)C1CN(CC2=Cc3c(F)cc(OCc4ccc(C(F)(F)F)cc4C(F)(F)F)cc3OC2)C1 [Ex 34] | 2 | 0.01 |  |  |
| O=C(O)C1CN(CC2=Cc3ccc(OCc4cc(-c5ccccc5)c(Br)s4)cc3OC2)C1 [Ex 43] | 6.2 | 0.26 |  |  |
| Cl.O=C(O)C1CCN(CC2=Cc3ccc(OCc4ccc(C(F)(F)F)cc4C(F)(F)F)cc3OC2)C1 (stereo not shown) [Ex 44] | 3.7 | 0.37 |  |  |
| Cl.O=C(O)C1CCN(CC2=Cc3c(F)cc(OCc4ccc(C(F)(F)F)cc4C(F)(F)F)cc3OC2)C1 (stereo not shown) [Ex 45] | 1.5 | 0.1 |  |  |
| CCc1sc(COc2cc(F)c3c(c2)OCC(CN2CCC(C(=O)O)C2)=C3)cc1-c1ccccc1 (stereo not shown) [Ex 56] | 2.3 | 0.067 |  |  |
| O=C(O)C1CCN(CC2=Cc3c(F)cc(OCc4ccc(-c5ccccc5)c(C(F)(F)F)c4)cc3OC2)C1 (stereo not shown) [Ex 62] | 2.5 | 0.21 |  |  |
| CC1(C(=O)O)CCN(CC2=Cc3c(F)cc(OCc4cc(-c5ccccc5)c(C(F)(F)F)s4)cc3OC2)C1 (stereo not shown) [Ex 66] | 10 | 0.21 |  |  |
| CC1CN(CC2=Cc3c(F)cc(OCc4cc(-c5ccccc5)c(C(F)(F)F)s4)cc3OC2)CC1C(=O)O (stereo not shown) [Ex 69] | 6.3 | 0.087 |  |  |
| O=C(O)C1(F)CCN(CC2=Cc3c(F)cc(OCc4cc(-c5ccccc5)c(C(F)(F)F)s4)cc3OC2)C1 (stereo not shown) [Ex 74] | 5.6 | 0.59 |  |  |
| CC1(C(=O)O)CN(CC2=Cc3c(F)cc(OCc4cc(-c5ccccc5)c(C(F)(F)F)s4)cc3OC2)C1 [Ex 81] | 4.6 | 0.25 |  |  |
| O=C(O)C1=CCCN(CC2=Cc3c(F)cc(OCc4ccc(C(F)(F)F)cc4C(F)(F)F)cc3OC2)C1 [Ex 85] | 11 | 0.19 |  |  |
| CC1(C(=O)O)CCN(CC2=Cc3c(F)cc(OCc4ccc(-n5cccc5)c(C(F)(F)F)c4)cc3OC2)C1 (stereo not shown) [Ex 89] | 6.1 | 0.16 |  |  |
| O=C(O)[C@H]1CCN(CC2=Cc3c(F)cc(OCc4ccc(-n5cccc5)c(C(F)(F)F)c4)cc3OC2)C1 [Ex 109] | 5.4 | 0.26 |  |  |
| CC1(C(=O)O)CN(CC2=Cc3ccc(OCc4ccc(-n5cccc5)c(C(F)(F)F)c4)cc3OC2)C1 [Ex 116] | 8.5 | 0.1 |  |  |

| Compound | EC50 (human S1P1 [1]) [nM] | ED50 [2, 4] [mg/kg] | ED50 [2, 5] [mg/kg] | EC50 (human S1P1 [3]) [nM] |
| --- | --- | --- | --- | --- |
| Cl.O=C(O)C1CN(CC2=Cc3ccc(C#CCCc4ccccc4)cc3OC2)C1 [Ex 132] | 22 | 0.16 |  |  |
| Cc1c(OCc2ccc(C(F)(F)F)cc2C(F)(F)F)ccc2c1OCC(CN1CCC(C(=O)O)C1)=C2.Cl (stereo not shown) [Ex 137] | 9.4 | 0.11 |  |  |
| C[C@H](Oc1ccc(COc2cc(F)c3c(c2)OCC(CN2CCC=C(C(=O)O)C2)=C3)cc1C(F)(F)F)C(F)(F)F.Cl [Ex 141] | 5.9 | 0.099 |  |  |
| Cl.O=C(O)C1=CCCN(CC2=Cc3c(F)cc(OCc4ccc(OC(CF)CF)c(Cl)c4)cc3OC2)C1 [Ex 143] |  | 0.32 |  |  |
| C[C@H](Oc1ccc(COc2cc(F)c3c(c2)OCC(CN2CCC=C(C(=O)O)C2)=C3)cc1Cl)C(F)(F)F.Cl [Ex 144] |  | 0.16 |  |  |
| C[C@H](Oc1ccc(COc2ccc3c(c2)OCC(CN2CCC=C(C(=O)O)C2)=C3)cc1Cl)C(F)(F)F.Cl [Ex 149] | 8.7 |  | 0.12 |  |
| CC(C)Oc1ccc(COc2ccc3c(c2)OCC(CN2CCC=C(C(=O)O)C2)=C3)cc1Cl.Cl [Ex 151] |  |  | 0.35 | 1.1 |
| CS(=O)(=O)NC(=O)[C@@H]1CCCN(CC2=Cc3c(F)cc(OCc4ccc(OC(CF)CF)c(C(F)(F)F)c4)cc3OC2)C1.Cl [Ex 152] |  |  | 0.28 | 6.3 |
| C[C@H](Oc1ccc(COc2ccc3c(c2)OCC(CN2CCC[C@@H](C(=O)O)C2)=C3)cc1C(F)(F)F)C(F)(F)F.Cl [Ex 156, (3R)-1-[(7-{[3-(trifluoromethyl)-4-{[(2S)-1,1,1-trifluoropropan-2-yl]oxy}benzyl]oxy}-2H-chromen-3-yl)methyl]piperidine-3-carboxylic acid hydrochloride] |  |  | 0.086 | 16 |
| Cl.O=C(O)[C@@H]1CCCN(CC2=Cc3ccc(OCc4ccc(OCC(F)(F)F)c(C(F)(F)F)c4)cc3OC2)C1 [Ex 160] |  |  | 0.26 | 2.2 |
| Cl.O=C(O)C1CCN(CC2=Cc3ccc(OCc4ccc(OCC(F)(F)F)c(C(F)(F)F)c4)cc3OC2)CC1 [Ex 171] |  |  | 0.14 | 9 |
| CC(C)Oc1ccc(COc2ccc3c(c2)OCC(CN2CCC=C(C(=O)O)C2)=C3)cc1C(F)(F)F.Cl [Ex 178] | 55 |  | 0.12 |  |
| Cl.O=C(O)C1=CCN(CC2=Cc3ccc(OCc4ccc(OC(CF)CF)c(Cl)c4)cc3OC2)CC1 [Ex 181] |  |  | 0.29 | 0.68 |
| C[C@H](Oc1ncc(COc2ccc3c(c2)OCC(CN2CCC=C(C(=O)O)C2)=C3)cc1Cl)C(F)(F)F.Cl [Ex 183] |  |  | 0.21 | 5.5 |
| Cl.O=C(O)[C@@H]1CCCN(CC2=Cc3c(F)cc(OCc4ccc(OC(CF)CF)c(C(F)(F)F)c4)cc3OC2)C1 [Ex 212] |  |  | 0.21 | 1.1 |
| Cl.O=C(O)C1=CCCN(CC2=Cc3ccc(OCc4ccc(C5CCCC5)c(C(F)(F)F)c4)cc3OC2)C1 [Ex 216] |  |  | 0.25 | 7.8 |

From patent US8193378B2, “2H-chromene compound and derivative thereof” (Astellas Pharma Inc., priority 2008, dated 2012)
